These results are taken from patent US9708314B2, “Heterocyclic amide compound” (NISSAN CHEMICAL INDUSTRIES, LTD., priority 2013, dated 2017).

Holding throughout (assay type): in vivo
Series [1] concerns Echinochloa oryzacola Vasing. Description: Test Example 1: herbicidal activity, application before weed generation in submerged conditions. Conditions: Application herbicide amount 320 g/ha; Seventeenth Table. The source says: (§1) [Test Example 1] Herbicidal Activity Test by Application Before Weed Generation in Submerged Conditions After alluvial soil was placed into 1/10000 are of Wagner pot, water was poured and mixed to form a submerged condition having a water depth of 4 cm. Seeds of Echinochloa oryzacola Vasing., Scirpus juncoides, and Monochoria vaginalis were sowed in a mixed manner in the above pot and thereafter 2.5 leaf stage Oryza sativa seedling was transplanted. On the day of sowing seeds, the emulsion agent containing the compound of the present invention prepared in accordance with Formulation Example 2 was diluted with water so as to be a predetermined herbicide amount and the diluted compound was applied to the surface of the water. The pot was placed in a greenhouse of 25° C. to 30° C. to grow plant. Three weeks after the herbicide application, effects on each plant were investigated in accordance with the following criteria. Criteria 5 Herbicidal ratio of 90% or more (almost completely withered) 4 Herbicidal ratio of 70% or more and less than 90% 3 Herbicidal ratio of 40% or more and less than 70% 2 Herbicidal ratio of 20% or more and less than 40% 1 Herbicidal ratio of 5% or more and less than 20% 0 Herbicidal ratio of 5% or less (almost no effect) A: Echinochloa oryzicola Vasing., B: Scirpus juncoides, C: Monochoria vaginalis, D: Leptochloa chinensis, E: Cyperus difformis, F: Digitaria ciliaris, G: Setaria viridis, H: Echinochloa crus-galli var. crus-galli, I: Avena fatua, J: Alopecurus myosuroides, K: Lolium multiflorum Lam., L: Apera spica-venti., M: Abutilon theophrasti, N: Amaranthus retroflexus, O: Chenopodium album, P: Stellaria media, Q: Galium spurium, R: Veronica persica, a: transplanted Oryza sativa, b: directly sowed Oryza sativa, c: Zea mays, d: Glycine max, e: Triticum aestivum, f: Beta vulgaris ssp. vulgaris, and g: Brassica campestris L. The application herbicide amount (g/ha) means an amount that a concentration is adjusted so that, when an application amount is converted into per hectare (1 ha), the herbicide is applied by the number of grams (g) of the described value.

Another series concerns Monochoria vaginalis. The description is as above. The settings on record: Application herbicide amount 320 g/ha; Seventeenth Table.
Description: as §1

The subject of another series is Scirpus juncoides. Described as above. Conditions: Application herbicide amount 320 g/ha; Seventeenth Table.
Description: as §1

Series [2] has as its system transplanted Oryza sativa. Description: Test Example 1: effect on crop, application before weed generation in submerged conditions. The settings on record: Application herbicide amount 320 g/ha; Seventeenth Table.
Description: as §1

Series [3] relates to directly sowed Oryza sativa. Description: Test Example 3: effect on crop by application to foliage (Wagner pot, water depth 0.1-0.5 cm). The settings on record: Nineteenth Table; application to foliage; application herbicide amount 320 g/ha. The essentials:
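Wagner pot foliar test: sow, grow 14 d (25–30 °C), spray diluted emulsion at set g/ha, score after 3 wk; 0 ≤5%, 5 ≥90% herbicidal ratio.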

Take `Cc1nnc(NC(=O)c2cc(C)c(C(F)(F)F)n3c(C(C)C)nnc23)o1` [1-075]: the “A: Echinochloa oryzicola Vasing. (herbicidal effect grade)” value in series [1] was 2 (Herbicidal ratio of 20% or more and less than 40%). Moreover, in the series with Monochoria vaginalis, the “C: Monochoria vaginalis (herbicidal effect grade)” value (from here on “C: Monochoria vaginalis”) is 2 (Herbicidal ratio of 20% or more and less than 40%). Besides, in the series with Scirpus juncoides, the “B: Scirpus juncoides (herbicidal effect grade)” value (shortened to “B: Scirpus juncoides”) is 0 (Herbicidal ratio of 5% or less (almost no effect)). For the same compound, the “a: transplanted Oryza sativa (effect on crop grade)” value (“a: transplanted Oryza sativa” for short) in series [2] is on record as 0 (Herbicidal ratio of 5% or less (almost no effect)). Further, the “b (effect on crop grade)” value in series [3] is 1 (Herbicidal ratio of 5% or more and less than 20%).
Turning to `Cc1nnc(NC(=O)c2ccc(C(F)(F)F)n3c(-c4cncs4)nnc23)o1` [1-058], the “A: Echinochloa oryzicola Vasing. (herbicidal effect grade)” value in series [1] is reported as 5 (Herbicidal ratio of 90% or more (almost completely withered)). Also, the “C: Monochoria vaginalis” value in the series on Monochoria vaginalis is 4 (Herbicidal ratio of 70% or more and less than 90%). Also, in the series with Scirpus juncoides, the “B: Scirpus juncoides” value is reported as 5 (Herbicidal ratio of 90% or more (almost completely withered)). Also, in series [2], the “a: transplanted Oryza sativa” value is 4 (Herbicidal ratio of 70% or more and less than 90%). Further, the “b (effect on crop grade)” value in series [3] is 4 (Herbicidal ratio of 70% or more and less than 90%).
Regarding `COc1cccc(Nc2nnc3c(C(=O)Nc4nnc(C)o4)ccc(C(F)(F)F)n23)n1` [1-102], the “A: Echinochloa oryzicola Vasing. (herbicidal effect grade)” value in series [1] is 3 (Herbicidal ratio of 40% or more and less than 70%). Further, the “C: Monochoria vaginalis” value with Monochoria vaginalis was 2 (Herbicidal ratio of 20% or more and less than 40%). In addition, the “B: Scirpus juncoides” value with Scirpus juncoides is 2 (Herbicidal ratio of 20% or more and less than 40%). In addition, the “a: transplanted Oryza sativa” value in series [2] was 2 (Herbicidal ratio of 20% or more and less than 40%). In series [3], the “b (effect on crop grade)” value was 2 (Herbicidal ratio of 20% or more and less than 40%).
As to `Cc1nnc(NC(=O)c2ccc(C(F)(F)F)n3c(-c4cccs4)nnc23)o1` [1-057], the “A: Echinochloa oryzicola Vasing. (herbicidal effect grade)” value in series [1] is recorded as 5 (Herbicidal ratio of 90% or more (almost completely withered)). Further, the “C: Monochoria vaginalis” value with Monochoria vaginalis is 4 (Herbicidal ratio of 70% or more and less than 90%). Moreover, the “B: Scirpus juncoides” value with Scirpus juncoides was 5 (Herbicidal ratio of 90% or more (almost completely withered)). Further, the “a: transplanted Oryza sativa” value in series [2] was 2 (Herbicidal ratio of 20% or more and less than 40%). In addition, in series [3], the “b (effect on crop grade)” value was 3 (Herbicidal ratio of 40% or more and less than 70%).
Turning to `CC(C)c1nnc2c(C(=O)Nc3nnc(C(F)(F)F)o3)ccc(C(F)(F)F)n12` [1-100], the “A: Echinochloa oryzicola Vasing. (herbicidal effect grade)” value in series [1] was 4 (Herbicidal ratio of 70% or more and less than 90%). For the same compound, the “C: Monochoria vaginalis” value in the series on Monochoria vaginalis is 3 (Herbicidal ratio of 40% or more and less than 70%). The “B: Scirpus juncoides” value with Scirpus juncoides was 3 (Herbicidal ratio of 40% or more and less than 70%). Further, in series [2], the “a: transplanted Oryza sativa” value is reported as 0 (Herbicidal ratio of 5% or less (almost no effect)). In addition, the “b (effect on crop grade)” value in series [3] was 0 (Herbicidal ratio of 5% or less (almost no effect)).
As to `CC(C)Sc1nnc2c(C(=O)Nc3nnco3)ccc(C(F)(F)F)n12` [1-091], the “A: Echinochloa oryzicola Vasing. (herbicidal effect grade)” value in series [1] is on record as 5 (Herbicidal ratio of 90% or more (almost completely withered)). Further, the “C: Monochoria vaginalis” value in the series on Monochoria vaginalis is on record as 5 (Herbicidal ratio of 90% or more (almost completely withered)). The “B: Scirpus juncoides” value in the series on Scirpus juncoides was 5 (Herbicidal ratio of 90% or more (almost completely withered)). Further, in series [2], the “a: transplanted Oryza sativa” value is on record as 0 (Herbicidal ratio of 5% or less (almost no effect)). For the same compound, the “b (effect on crop grade)” value in series [3] is reported as 0 (Herbicidal ratio of 5% or less (almost no effect)).
In the case of `Cc1nnc(NC(=O)c2ccc(C(F)(F)F)n3c(SCC(C)C)nnc23)o1` [1-093], the “A: Echinochloa oryzicola Vasing. (herbicidal effect grade)” value in series [1] was 5 (Herbicidal ratio of 90% or more (almost completely withered)). The “C: Monochoria vaginalis” value in the series with Monochoria vaginalis was 3 (Herbicidal ratio of 40% or more and less than 70%). Besides, in the series on Scirpus juncoides, the “B: Scirpus juncoides” value was 4 (Herbicidal ratio of 70% or more and less than 90%). For the same compound, the “a: transplanted Oryza sativa” value in series [2] was 0 (Herbicidal ratio of 5% or less (almost no effect)). The “b (effect on crop grade)” value in series [3] was 1 (Herbicidal ratio of 5% or more and less than 20%).
As to `Cc1nnc(NC(=O)c2ccc(C(F)(F)F)n3c(SC(C)(C)C)nnc23)o1` [1-095], the “A: Echinochloa oryzicola Vasing. (herbicidal effect grade)” value in series [1] is 5 (Herbicidal ratio of 90% or more (almost completely withered)). In the series on Monochoria vaginalis, the “C: Monochoria vaginalis” value is 5 (Herbicidal ratio of 90% or more (almost completely withered)). For the same compound, in the series with Scirpus juncoides, the “B: Scirpus juncoides” value is 5 (Herbicidal ratio of 90% or more (almost completely withered)). Further, in series [2], the “a: transplanted Oryza sativa” value is 1 (Herbicidal ratio of 5% or more and less than 20%). For the same compound, the “b (effect on crop grade)” value in series [3] is 1 (Herbicidal ratio of 5% or more and less than 20%).
`Cc1nnc(NC(=O)c2ccc(C(F)(F)F)n3c(-c4cccc(Cl)n4)nnc23)o1` [1-055]: the “A: Echinochloa oryzicola Vasing. (herbicidal effect grade)” value in series [1] is 4 (Herbicidal ratio of 70% or more and less than 90%). For the same compound, the “C: Monochoria vaginalis” value in the series with Monochoria vaginalis was 4 (Herbicidal ratio of 70% or more and less than 90%). The “B: Scirpus juncoides” value in the series with Scirpus juncoides was 4 (Herbicidal ratio of 70% or more and less than 90%). In addition, in series [2], the “a: transplanted Oryza sativa” value was 1 (Herbicidal ratio of 5% or more and less than 20%). Further, the “b (effect on crop grade)” value in series [3] is 2 (Herbicidal ratio of 20% or more and less than 40%).
Regarding `Cc1nnc(NC(=O)c2ccc(C(F)(F)F)n3c(CO)nnc23)o1` [1-067], the “A: Echinochloa oryzicola Vasing. (herbicidal effect grade)” value in series [1] is 3 (Herbicidal ratio of 40% or more and less than 70%). In the series on Monochoria vaginalis, the “C: Monochoria vaginalis” value is reported as 0 (Herbicidal ratio of 5% or less (almost no effect)). The “B: Scirpus juncoides” value in the series with Scirpus juncoides is on record as 0 (Herbicidal ratio of 5% or less (almost no effect)). Further, the “a: transplanted Oryza sativa” value in series [2] was 0 (Herbicidal ratio of 5% or less (almost no effect)). Further, in series [3], the “b (effect on crop grade)” value was 2 (Herbicidal ratio of 20% or more and less than 40%).
As to `Cc1cc(-c2nnc3c(C(=O)Nc4nnc(C)o4)ccc(C(F)(F)F)n23)n(C)n1` [1-056], in series [1], the “A: Echinochloa oryzicola Vasing. (herbicidal effect grade)” value was 5 (Herbicidal ratio of 90% or more (almost completely withered)). For the same compound, the “C: Monochoria vaginalis” value with Monochoria vaginalis is 4 (Herbicidal ratio of 70% or more and less than 90%). Moreover, the “B: Scirpus juncoides” value in the series on Scirpus juncoides is 5 (Herbicidal ratio of 90% or more (almost completely withered)). For the same compound, the “a: transplanted Oryza sativa” value in series [2] is 3 (Herbicidal ratio of 40% or more and less than 70%). The “b (effect on crop grade)” value in series [3] is 4 (Herbicidal ratio of 70% or more and less than 90%).
As to `CCC(C)Sc1nnc2c(C(=O)Nc3nnc(C)o3)ccc(C(F)(F)F)n12` (stereo not shown) [1-094], the “A: Echinochloa oryzicola Vasing. (herbicidal effect grade)” value in series [1] is listed as 5 (Herbicidal ratio of 90% or more (almost completely withered)). Also, in the series on Monochoria vaginalis, the “C: Monochoria vaginalis” value is 3 (Herbicidal ratio of 40% or more and less than 70%). Besides, the “B: Scirpus juncoides” value in the series with Scirpus juncoides is given as 5 (Herbicidal ratio of 90% or more (almost completely withered)). Besides, the “a: transplanted Oryza sativa” value in series [2] was 0 (Herbicidal ratio of 5% or less (almost no effect)). The “b (effect on crop grade)” value in series [3] was 1 (Herbicidal ratio of 5% or more and less than 20%).
As to `Cc1nnc(NC(=O)c2ccc(C(F)(F)F)n3c(Nc4ccccc4)nnc23)o1` [1-082], the “A: Echinochloa oryzicola Vasing. (herbicidal effect grade)” value in series [1] was 3 (Herbicidal ratio of 40% or more and less than 70%). The “C: Monochoria vaginalis” value in the series with Monochoria vaginalis was 2 (Herbicidal ratio of 20% or more and less than 40%). Further, the “B: Scirpus juncoides” value in the series on Scirpus juncoides is 2 (Herbicidal ratio of 20% or more and less than 40%). Also, in series [2], the “a: transplanted Oryza sativa” value is on record as 0 (Herbicidal ratio of 5% or less (almost no effect)). Further, in series [3], the “b (effect on crop grade)” value is 0 (Herbicidal ratio of 5% or less (almost no effect)).
In the case of `Cc1nnc(NC(=O)c2ccc(C(F)(F)F)n3c(C=O)nnc23)o1` [1-068], the “A: Echinochloa oryzicola Vasing. (herbicidal effect grade)” value in series [1] was 2 (Herbicidal ratio of 20% or more and less than 40%). Moreover, the “C: Monochoria vaginalis” value in the series with Monochoria vaginalis was 3 (Herbicidal ratio of 40% or more and less than 70%). The “B: Scirpus juncoides” value in the series on Scirpus juncoides was 3 (Herbicidal ratio of 40% or more and less than 70%). Besides, the “a: transplanted Oryza sativa” value in series [2] is listed as 0 (Herbicidal ratio of 5% or less (almost no effect)). Further, in series [3], the “b (effect on crop grade)” value is 1 (Herbicidal ratio of 5% or more and less than 20%).
